Assay: Toxicity in brine shrimp
Assay type: organism-based
Conditions: artemia, in vivo
Compound CC(=O)O[C@H]1C[C@H](O)[C@@]23C(=O)[C@@H](C)[C@@H]1[C@]2(C)[C@@H](C)CC[C@@H]3O [LEMNAFRICANOL] has an LC50 of 320 nM. C[C@@H](C=O)[C@H]1C(=O)CCC2=C[C@@H](O)C[C@H](C)[C@]21C [NARDOSINANOL C] gave an LC50 of 4000 nM. With CC(=O)[C@H]1C[C@H](O)C2=CCC[C@H](C)[C@@]2(C)[C@H]1C(C)=O [NARDOSINANOL G] the LC50 was 350 nM.

Reference: ChEMBL document CHEMBL1144803, “Nardosinanols A-I and lemnafricanol, sesquiterpenes from several soft corals, Lemnalia sp., Paralemnalia clavata, Lemnalia africana, and Rhytisma fulvum fulvum” (J Nat Prod, 2008)
